In BigSolDB 2.1:

O=C(NNC(=S)Nc1ccc(Cl)cc1)c1ccncc1
Conditions | solubility (mole fraction)
in PEG-400, 298.15 K | 0.108
in PEG-400, 308.15 K | 0.114
in PEG-400, 318.15 K | 0.12
in PEG-400, 328.15 K | 0.126
in PEG-400, 338.15 K | 0.131

solubility (mole fraction)
Conditions | 298.15 K | 308.15 K | 318.15 K | 328.15 K | 338.15 K
in ethanol | 0.000647 | 0.000693 | 0.000743 | 0.000792 | 0.000834
in ethylene glycol | 0.0077 | 0.00841 | 0.00894 | 0.00961 | 0.0104
in isopropanol | 0.00113 | 0.00121 | 0.00121 | 0.00129 | 0.00138
in propylene glycol | 0.00738 | 0.00789 | 0.00848 | 0.00909 | 0.00987
